Results from US11297839B2, “Stable compositions of uncomplexed iodine and methods of use” (ioTech International, Inc., priority 2014, dated 2022).

Tests used:
[1] = Compatibility of surface active agents with molecular iodine base composition; assay type: physicochemical; settings: 985 micromolar molecular iodine base with n-propanol, peracetic acid, hydrogen peroxide, iodate, citric acid; 37 degrees centigrade 6 weeks
Procedure: A further objective of this invention was to incorporate surface active agents in the compositions contemplated in this application to enhance the cleaning and wetting properties of said compositions. A series of surface active agents were screened to insure their compatibility with the molecular iodine based composition contemplated in this application. A 985 micromolar concentration of molecular iodine was prepared by dissolving elemental iodine crystals in a sealed glass volumetric flask containing the base composition. […] Samples of the following surface active agents or classes of surface active agents were obtained from various manufacturers and evaluated for compatibility with molecular iodine.

[2] = Compatibility of biocides with 300 ppm molecular iodine base composition; settings: biocide added at increasing concentrations to 300 ppm molecular iodine base, iodate excess 2; 6 weeks

Compound | compatibility of surface active agent with molecular iodine composition [1] | compatibility with molecular iodine (colour, thiosulfate titratable iodine) [2]
nonylphenoxypolyethyleneoxy ethanol sulfate | compatible at all concentrations tested | 
CCCCCCCC(=O)O [capryllic acid] | compatible at all concentrations tested | 
CCCCCCCCCCCC(=O)OCC(O)CO (stereo not shown) [dodecanoic acid 2,3-dihydroxypropyl ester] | compatible at all concentrations tested | 
CCO [ethanol] |  | did not reduce thiosulfate titratable iodine
CC(=O)OO [peracetic acid] |  | did not reduce thiosulfate titratable iodine
OO [hydrogen peroxide] |  | did not reduce thiosulfate titratable iodine
CCCCCCCCC(=O)OCC(O)CO (stereo not shown) [nonanoic acid 2,3-dihydroxypropyl ester] | compatible at all concentrations tested | 
CC(C)O [Formulation 2-propanol, 2-propanol] |  | did not reduce thiosulfate titratable iodine
CCCO [Formulation 1-propanol, 1-propanol] |  | did not reduce thiosulfate titratable iodine
CCCCCCCC(=O)O [octanoic acid] |  | did not reduce thiosulfate titratable iodine
